The record followed here is patent US20230082430A1 (C4 Therapeutics, Inc., priority 2019, published 2023).

The structures appear in SMILES notation. Bounds are passed on as bounds.

The test has as its system NCIH929.1 cells. Description: Cell viability assay for Table 2 (CellTiter-Glo 2.0, ATP quantification, 96 hr). In kind it is cell-based. The conditions noted are these: 96 h, NCIH929.1 cell viability, 96 hr, top concentration 1 μM, 14 points half log titration; read-out: IC50. The text has this:
Cell Viability Assay for Table 2
CellTiter-Glo® 2.0 Assay was purchased from Promega (Madison, Wis., USA). NCIH929.1 cell line was purchased from ATCC (Manassas, Va., USA). Cell culture flasks and 384-well microplates were acquired from VWR (Radnor, Pa., USA).
In general terms: In ATP-based viability assays light output follows the ATP content of the culture.
As to `CC1(C(=O)N2CCC(C)(n3cc(Cc4ccc5c6c(cccc46)C(=O)N5C4CCC(=O)NC4=O)cn3)CC2)CCOCC1` (centres unmarked) [Compound 81, 3-(6-((1-(4-methyl-1-(4-methyltetrahydro-2H-pyran-4-carbonyl)piperidin-4-yl)-1H-pyrazol-4-yl)methyl)-2-oxobenzo[cd]indol-1(2H)-yl)piperidine-2,6-dione], the IC50 was less than 1 nM. As to `CC1(n2cc(Cc3ccc4c5c(cccc35)C(=O)N4C3CCC(=O)NC3=O)cn2)CCN(C(=O)C(C)(C)C(F)(F)F)CC1` (centres unmarked) [Compound 82, 3-(6-((1-(4-methyl-1-(3,3,3-trifluoro-2,2-dimethylpropanoyl)piperidin-4-yl)-1H-pyrazol-4-yl)methyl)-2-oxobenzo[cd]indol-1(2H)-yl)piperidine-2,6-dione], the IC50 was less than 1 nM.

For `CC1(C(=O)N2CCC(C)(n3cc(Cc4ccc5c6c(cccc46)C(=O)N5C4CCC(=O)NC4=O)cn3)CC2)CC1` (centres unmarked) [Compound 83, 3-(6-((1-(4-methyl-1-(1-methylcyclopropane-1-carbonyl)piperidin-4-yl)-1H-pyrazol-4-yl)methyl)-2-oxobenzo[cd]indol-1(2H)-yl)piperidine-2,6-dione], the IC50 is less than 1 nM. `COC(C)(C)C(=O)N1CCC(C)(n2cc(Cc3ccc4c5c(cccc35)C(=O)N4C3CCC(=O)NC3=O)cn2)CC1` (centres unmarked) [Compound 84, 3-(6-((1-(1-(2-methoxy-2-methylpropanoyl)-4-methylpiperidin-4-yl)-1H-pyrazol-4-yl)methyl)-2-oxobenzo[cd]indol-1(2H)-yl)piperidine-2,6-dione]: the IC50 is less than 1 nM. Regarding `COCC(C)(C)C(=O)N1CCC(C)(n2cc(Cc3ccc4c5c(cccc35)C(=O)N4C3CCC(=O)NC3=O)cn2)CC1` (centres unmarked) [Compound 85, 3-(6-((1-(1-(3-methoxy-2,2-dimethylpropanoyl)-4-methylpiperidin-4-yl)-1H-pyrazol-4-yl)methyl)-2-oxobenzo[cd]indol-1(2H)-yl)piperidine-2,6-dione], the IC50 is less than 1 nM. Under `CC1(n2cc(Cc3ccc4c5c(cccc35)C(=O)N4C3CCC(=O)NC3=O)cn2)CCN(C(=O)C2(C#N)CCC2)CC1` (centres unmarked) [Compound 86, 1-(4-(4-((1-(2,6-dioxopiperidin-3-yl)-2-oxo-1,2-dihydrobenzo[cd]indol-6-yl)methyl)-1H-pyrazol-1-yl)-4-methylpiperidine-1-carbonyl)cyclobutane-1-carbonitrile] stands less than 1 nM; under `CC12CC(C(=O)N3CCC(C)(n4cc(Cc5ccc6c7c(cccc57)C(=O)N6C5CCC(=O)NC5=O)cn4)CC3)(CCO1)C2` (centres unmarked) [Compound 88, 3-(6-((1-(4-methyl-1-(1-methyl-2-oxabicyclo[3.1.1]heptane-5-carbonyl)piperidin-4-yl)-1H-pyrazol-4-yl)methyl)-2-oxobenzo[cd]indol-1(2H)-yl)piperidine-2,6-dione], less than 1 nM; under `CC1(n2cc(Cc3ccc4c5c(cccc35)C(=O)N4C3CCC(=O)NC3=O)cn2)CCN(C(=O)C23CCCC(C2)C3)CC1` (centres unmarked) [Compound 89, 3-(6-((1-(1-(bicyclo[3.1.1]heptane-1-carbonyl)-4-methylpiperidin-4-yl)-1H-pyrazol-4-yl)methyl)-2-oxobenzo[cd]indol-1(2H)-yl)piperidine-2,6-dione], less than 1 nM. For the molecule `CC1(n2cc(Cc3ccc4c5c(cccc35)C(=O)N4C3CCC(=O)NC3=O)cn2)CCN(C(=O)C23CC(CO2)C3)CC1` (centres unmarked) [Compound 90, 3-(6-((1-(1-(2-oxabicyclo[2.1.1]hexane-1-carbonyl)-4-methylpiperidin-4-yl)-1H-pyrazol-4-yl)methyl)-2-oxobenzo[cd]indol-1(2H)-yl)piperidine-2,6-dione], the IC50 is less than 1 nM. Regarding `CC1(n2cc(Cc3ccc4c5c(cccc35)C(=O)N4C3CCC(=O)NC3=O)cn2)CCN(C(=O)C23CC(C2)C3)CC1` (centres unmarked) [Compound 91, 3-(6-((1-(1-(bicyclo[1.1.1]pentane-1-carbonyl)-4-methylpiperidin-4-yl)-1H-pyrazol-4-yl)methyl)-2-oxobenzo[cd]indol-1(2H)-yl)piperidinc-2,6-dione], the IC50 was less than 1 nM. Consider `CC1(C(=O)N2CCC(C)(n3cc(Cc4ccc5c6c(cccc46)C(=O)N5C4CCC(=O)NC4=O)cn3)CC2)CCC1` (centres unmarked) [Compound 92, 3-(6-((1-(4-methyl-1-(1-methylcyclobutane-1-carbonyl)piperidin-4-yl)-1H-pyrazol-4-yl)methyl)-2-oxobenzo[cd]indol-1(2H)-yl)piperidine-2,6-dione], for which the IC50 is less than 1 nM.

Consider `CC(C)(C)C(=O)N1CCC(C)(n2cc(Cc3ccc4c5c(cccc35)C(=O)N4C3CCC(=O)NC3=O)cn2)CC1` (centres unmarked) [Compound 93], for which the IC50 is less than 1 nM. For the molecule `CC1(C(=O)N2CCC(C)(n3cc(Cc4ccc5c6c(cccc46)C(=O)N5C4CCC(=O)NC4=O)cn3)CC2)COC1` (centres unmarked) [Compound 94, 3-(6-((1-(4-methyl-1-(3-methyloxetane-3-carbonyl)piperidin-4-yl)-1H-pyrazol-4-yl)methyl)-2-oxobenzo[cd]indol-1(2H)-yl)piperidine-2,6-dione], the IC50 was less than 1 nM.

For `CC(C)(CF)C(=O)N1CCC(C)(n2cc(Cc3ccc4c5c(cccc35)C(=O)N4C3CCC(=O)NC3=O)cn2)CC1` (centres unmarked) [Compound 95, 3-(6-((1-(1-(3-fluoro-2,2-dimethylpropanoyl)-4-methylpiperidin-4-yl)-1H-pyrazol-4-yl)methyl)-2-oxobenzo[cd]indol-1(2H)-yl)piperidine-2,6-dione], the concentration for half-maximal inhibition (IC50) is less than 1 nM. The value for `CC(C)(F)C(=O)N1CCC(C)(n2cc(Cc3ccc4c5c(cccc35)C(=O)N4C3CCC(=O)NC3=O)cn2)CC1` (centres unmarked) [Compound 96, 3-(6-((1-(1-(2-fluoro-2-methylpropanoyl)-4-methylpiperidin-4-yl)-1H-pyrazol-4-yl)methyl)-2-oxobenzo[cd]indol-1(2H)-yl)piperidine-2,6-dione] was less than 1 nM; that for `CC(C)(Cl)C(=O)N1CCC(C)(n2cc(Cc3ccc4c5c(cccc35)C(=O)N4C3CCC(=O)NC3=O)cn2)CC1` (centres unmarked) [Compound 97, 3-(6-((1-(1-(2-chloro-2-methylpropanoyl)-4-methylpiperidin-4-yl)-1H-pyrazol-4-yl)methyl)-2-oxobenzo[cd]indol-1(2H)-yl)piperidine-2,6-dione] was less than 1 nM. For the molecule `CC(C)(CO)C(=O)N1CCC(C)(n2cc(Cc3ccc4c5c(cccc35)C(=O)N4C3CCC(=O)NC3=O)cn2)CC1` (centres unmarked) [Compound 98, 3-(6-((1-(1-(3-hydroxy-2,2-dimethylpropanoyl)-4-methylpiperidin-4-yl)-1H-pyrazol-4-yl)methyl)-2-oxobenzo[cd]indol-1(2H)-yl)piperidine-2,6-dione], the IC50 was less than 1 nM. Under `CC1(CN2CCC(C)(n3cc(Cc4ccc5c6c(cccc46)C(=O)N5C4CCC(=O)NC4=O)cn3)CC2)CC1` (centres unmarked) [Compound 100, 3-(6-((1-(4-methyl-1-((1-methylcyclopropyl)methyl)piperidin-4-yl)-1H-pyrazol-4-yl)methyl)-2-oxobenzo[cd]indol-1(2H)-yl)piperidine-2,6-dione] stands less than 1 nM; under `COC1(CN2CCC(C)(n3cc(Cc4ccc5c6c(cccc46)C(=O)N5C4CCC(=O)NC4=O)cn3)CC2)CC1` (centres unmarked) [Compound 101, 3-(6-((1-(1-((1-methoxycyclopropyl)methyl)-4-methylpiperidin-4-yl)-1H-pyrazol-4-yl)methyl)-2-oxobenzo[cd]indol-1(2H)-yl)piperidine-2,6-dione], less than 1 nM. Regarding `CC1(n2cc(Cc3ccc4c5c(cccc35)C(=O)N4C3CCC(=O)NC3=O)cn2)CCN(CC2(C#N)CC2)CC1` (centres unmarked) [Compound 102, 1-((4-(4-((1-(2,6-dioxopiperidin-3-yl)-2-oxo-1,2-dihydrobenzo[cd]indol-6-yl)methyl)-1H-pyrazol-1-yl)-4-methylpiperidin-1-yl)methyl)cyclopropane-1-carbonitrile], the IC50 is less than 1 nM.

Consider `COC1(CN2CCC(C)(n3cc(Cc4ccc5c6c(cccc46)C(=O)N5C4CCC(=O)NC4=O)cn3)CC2)CCC1` (centres unmarked) [Compound 103, 3-(6-((1-(1-((1-methoxycyclobutyl)methyl)-4-methylpiperidin-4-yl)-1H-pyrazol-4-yl)methyl)-2-oxobenzo[cd]indol-1(2H)-yl)piperidine-2,6-dione], for which the IC50 was less than 1 nM.

`CC(C)(C)CN1CCC(C)(n2cc(Cc3ccc4c5c(cccc35)C(=O)N4C3CCC(=O)NC3=O)cn2)CC1` (centres unmarked) [Compound 104, 3-(6-((1-(4-methyl-1-neopentylpiperidin-4-yl)-1H-pyrazol-4-yl)methyl)-2-oxobenzo[cd]indol-1(2H)-yl)piperidine-2,6-dione]: the IC50 is less than 1 nM. As for `CC1(n2cc(Cc3ccc4c5c(cccc35)C(=O)N4C3CCC(=O)NC3=O)cn2)CCN(CC2(C(F)(F)F)CC2)CC1` (centres unmarked) [Compound 105, 3-(6-((1-(4-methyl-1-((1-(trifluoromethyl)cyclopropyl)methyl)piperidin-4-yl)-1H-pyrazol-4-yl)methyl)-2-oxobenzo[cd]indol-1(2H)-yl)piperidine-2,6-dione], the concentration for half-maximal inhibition (IC50) was less than 1 nM. For `CC1(n2cc(Cc3ccc4c5c(cccc35)C(=O)N4C3CCC(=O)NC3=O)cn2)CCN(CC2(F)CC2)CC1` (centres unmarked) [Compound 106, 3-(6-((1-(1-((1-fluorocyclopropyl)methyl)-4-methylpiperidin-4-yl)-1H-pyrazol-4-yl)methyl)-2-oxobenzo[cd]indol-1(2H)-yl)piperidine-2,6-dione], the IC50 was less than 1 nM.

On to `CC(C)(C)OC(=O)N1CCN(Cc2ccc(Cc3ccc4c5c(cccc35)C(=O)N4C3CCC(=O)NC3=O)cc2)CC1` (centres unmarked) [Compound 107, tert-butyl 4-(4-((1-(2,6-dioxopiperidin-3-yl)-2-oxo-1,2-dihydrobenzo[cd]indol-6-yl)methyl)benzyl)piperazine-1-carboxylate], for which the IC50 is less than 1 nM. The value for `CC(=O)N1CCN(Cc2ccc(Cc3ccc4c5c(cccc35)C(=O)N4C3CCC(=O)NC3=O)cc2)CC1` (centres unmarked) [Compound 108, 3-(6-(4-((4-acetylpiperazin-1-yl)methyl)benzyl)-2-oxobenzo[cd]indol-1(2H)-yl)piperidine-2,6-dione] was less than 1 nM.

In general, IC50 refers to the concentration that gives 50% inhibition.
